The supplement of paper PMC10307832

Experiments:
Test in all cases: relative viability (nuclei count vs DMSO), 5 days (fraction); higher = more cells survive
Wnt-C59 = compound: CC1=NC=CC(=C1)C2=CC=C(C=C2)CC(=O)NC3=CC=C(C=C3)C4=CN=CC=C4 [Wnt-C59]
How it was run: (§1)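 Viability here means nuclei in treated wells divided by nuclei in vehicle wells, reported as the median across plates. Only plates with control CV below 25% and at least one doubling passed. Lung cancer cell lines in 1536-well plates were exposed to five √10-spaced library-drug doses for 5 days and counted from 4× Hoechst images in MetaXpress.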

Lapatinib = compound: CS(=O)(=O)CCNCc1ccc(-c2ccc3ncnc(Nc4ccc(OCc5cccc(F)c5)c(Cl)c4)c3c2)o1 [Lapatinib]
How it was run: as §1

Wnt-C59 + Crizotinib = compound: CC1=NC=CC(=C1)C2=CC=C(C=C2)CC(=O)NC3=CC=C(C=C3)C4=CN=CC=C4 [Wnt-C59] + C[C@@H](Oc1cc(-c2cnn(C3CCNCC3)c2)cnc1N)c1c(Cl)ccc(F)c1Cl [Crizotinib] (partner 1 µM)
How it was run: (§2)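 After 5 days of treatment, lung cancer cells in 1536-well plates were fixed and stained in a single step (final 0.05% Triton X-100, 1% formaldehyde, 1 ug/ml Hoechst) and their nuclei counted on 4× images. Treatment had been applied by pin tool the day after seeding as one drug alone or as a fixed anchor-drug dose with five library-drug doses (not always all listed) in √10 steps. Relative viability is the nuclei count of treated wells divided by that of vehicle wells, and values are medians of duplicate plates.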

Lapatinib + Decitabine = compound: CS(=O)(=O)CCNCc1ccc(-c2ccc3ncnc(Nc4ccc(OCc5cccc(F)c5)c(Cl)c4)c3c2)o1 [Lapatinib] + Nc1ncn([C@H]2C[C@H](O)[C@@H](CO)O2)c(=O)n1 [Decitabine] (partner 2 µM)
How it was run: as §2

Cell Line: UMC-11
- relative viability (Wnt-C59; 0.001 µM): 0.909
- relative viability (Wnt-C59; 0.01 µM): 1.04
- relative viability (Wnt-C59; 0.03162 µM): 1.08
- relative viability (Wnt-C59; 0.1 µM): 1.03
- relative viability (Lapatinib; 0.02 µM): 0.906
- relative viability (Lapatinib; 0.06325 µM): 0.935
- relative viability (Lapatinib; 0.2 µM): 1.02
- relative viability (Lapatinib; 0.6325 µM): 0.998
- relative viability (Lapatinib; 2 µM): 0.942
- relative viability (Lapatinib; 2 µM, anchor plate): 1.02
- relative viability (Wnt-C59 + Crizotinib; first compound 0.001 µM): 0.659
- relative viability (Wnt-C59 + Crizotinib; first compound 0.01 µM): 0.567
- relative viability (Wnt-C59 + Crizotinib; first compound 0.03162 µM): 0.588
- relative viability (Wnt-C59 + Crizotinib; first compound 0.1 µM): 0.518
- relative viability (Lapatinib + Decitabine; first compound 0.02 µM): 0.493
- relative viability (Lapatinib + Decitabine; first compound 0.06325 µM): 0.541
- relative viability (Lapatinib + Decitabine; first compound 0.2 µM): 0.627
- relative viability (Lapatinib + Decitabine; first compound 0.6325 µM): 0.518
- relative viability (Lapatinib + Decitabine; first compound 2 µM): 0.604
